Results from patent publication US11981944B2, “Immunogenic arginase peptides” (IO Biotech ApS, priority 2016, dated 2024).

Legend:
Assay type in all cases: cell-based, human
[1] = tested on: peripheral blood mononuclear cells (PBMC); experiment: IFN-gamma ELISPOT secretion assay on PBMC (Example 1); conditions: for specific T-cell responses against Arg-derived peptide: IFN-gamma ELISPOT, PBMC from six melanoma patients, FIG. 1; for immune responses against overlapping 20mer peptides: PBMC from three cancer patients, FIG. 3
[2] = tested on: PBMCs from healthy donors or cancer patients; experiment: IFNγ ELISPOT on PBMCs after one week peptide and IL-2 stimulation (Example 2); conditions: for spontaneous IFNγ ELISPOT responses against 20-mer library peptides: cancer (melanoma) patient PBMCs, FIG. 9A
Protocol: PBMCs from healthy donors or cancer patients were stimulated with 80 μg of arginase-derived peptides and 120 U/ml IL-2 (Peprotech, London, UK, cat. 200-02) for a week. 4-6×10^5 PBMCs were then placed in the bottom of ELISPOT plate (nitrocellulose bottomed 96-well plates by MultiScreen MAIP […]; Millipore, cat. MSIPN4W50) pre-coated with IFN-y capture Ab (Mabtech, cat. 3420-3-1000) and 1-10 μg of arginase derived peptides were added. PBMCs from each patient and donors were set up in duplicates or triplicates for peptide and control stimulations. Cells were incubated in ELISPOT plates in the presence of an antigen for 14-16 hours after which they are washed off and secondary biotinylated Ab (Mabtech, cat. 3420-6-1000) was added. After 2 h incubation unbound secondary antibody was washed off and streptavidin conjugated alkaline phosphatase (AP) (Mabtech, cat. 3310-10) was added for 1 h. Next, unbound conjugated enzyme is washed off and the assay is developed by adding BCIP/NBT substrate (Mabtech, cat. 3650-10). Developed ELISPOT plates were analysed on CTL ImmunoSpot S6 Ultimate-V analyzer using Immunospot software v5.1. Responses were calculated as the difference between average numbers of spots in wells stimulated with Arginase-1 peptides and control wells. We divided the entire arginase-1 protein sequence into overlapping 20-amino-acid-long peptides, generating a library of 31 peptides covering the whole sequence (SEQ ID NOs 18-48)). Each peptide in the library overlapped with the first 10 amino acids of the following peptide. Using this arginase peptide library and the IFNγ ELISPOT assay, we next screened PBMCs from melanoma patients and healthy donors for spontaneous responses (FIGS. 9A and 9B). The PBMCs were stimulated for one week with a pool of 3-4 adjacent 20-mer arginase library peptides and low-dose IL-2 (120 U/mL). They were then set up for an IFNγ ELISPOT assay to screen for responses against each 20-mer peptide separately. […] Among these overlapping peptides, […]-200), and Arg(191-210) spanned a 50-amino-acid-long region that was deemed a hot-spot region since nearly all patients harbored a response against one or more of these peptides (FIG. 9A). The selected eight peptides were further used to screen for spontaneous immune responses against arginase-1 in PBMCs from eight healthy donors using IFNγ ELISPOT. […] Since we most frequently observed responses against arginase-1 peptides from the hot-spot region, we next analyzed whether longer peptides covering the same sequence could be used instead of four 20-mers. […] We then divided the arginase-1 hot-spot region into two 30-mer peptides that overlapped by 10 amino acids (peptides labelled by reference to start and end position): […]-190) and […]-210). These 30-mer peptides were used to check for responses in selected PBMCs from cancer patients and healthy donors, which had previously shown responses against the 20-mer hot-spot peptides. The PBMCs were stimulated for one week with either […]-190) or […]-210) in the presence of IL-2, and were then used in IFNγ ELISPOT.

[3] = tested on: TILs from eight melanoma patients; experiment: Intracellular staining for IFNγ and TNFα release in melanoma TILs
Protocol: Flow cytometry analysis was performed on a FACSCantoTM II (BD Biosciences, San Jose CA, USA). Intracellular staining of cell cultures was performed after the cells were stimulated with 20-mere peptides for 5 hours or 30-mere peptides for 8h (BD GolgiPlugTM cat. 555029, was added after the first hour). The cells were then stained for surface markers, then washed and permeabilized by using Fixation/Permeabilization and Permeabilization Buffer (eBioscience, cat. 00-5123-43), according to manufacturer's instructions. Antibodies used: IFNγ-APC (cat. 341117), TNFα-BV421 (cat. 562783), CD4-FITC (cat. 347413), CD8-PerCP (cat. 345774) (all from BD Biosciences). Dead cells were stained using FVS510 (564406, BD Biosciences) according to manufacturer's instructions. To investigate the potential presence of arginase-specific T cells among tumor-infiltrating lymphocytes in cancer, we screened TILs from eight melanoma patients for responses against arginase-1 derived peptides. To this end, we performed intracellular staining for IFNγ and TNFα release in response to peptide stimulation. TILs were thawed and rested overnight without IL-2, and then stimulated for 5 h with three hot-spot immunogenic region 20-mer peptides (peptides labelled by reference to start and end position): […]-200). […] The percentage of IFNγ-producing cells was higher for […]-190) and […]-200) compared to […]-180), and the response against […]-200) was almost twice that against […]-180).

Sequence	specific T-cell responses against Arg-derived peptide [1]	immune responses against overlapping 20mer peptides [1]	also measured
LVLGGDHSL (Peptide fragment of human Arginase 1) [Arg2, positions 95-103 of human Arginase 1]	Strong responses	–	–
HARVHPDLGVIWVDAHTDIN (Peptide fragment of human Arginase 1) [Arg1-12, positions 111-130 of human Arginase 1]	–	Frequent immune responses were detected	spontaneous IFNγ ELISPOT responses against 20-mer library peptides [2]: highest and most abundant responses
LLKELKGKI [Arg3]	Strong responses	–	–
LRKAGLLEKLKEQECDVKDY (Peptide fragment of human Arginase 1) [Arg1-4, positions 31-50 of human Arginase 1]	–	Frequent immune responses were detected	spontaneous IFNγ ELISPOT responses against 20-mer library peptides [2]: highest and most abundant responses
KTLGIKYFSMTEVDRLGIGK (Peptide frgment of human Arginase 1) [Arg1-20, positions 191-210 of human Arginase 1]	–	Frequent immune responses were detected	spontaneous IFNγ ELISPOT responses against 20-mer library peptides [2]: highest and most abundant responses
VMEETLSYLLGRKKRPIHLS (Peptide fragment of human Arginase 1) [Arg1-22, positions 211-230 of human Arginase 1]	–	Frequent immune responses were detected	–
VMEETLSYL (Peptide fragment of human Arginase 1) [Arg5, positions 211-219 of human Arginase 1]	Strong responses	–	–
DSPFQIVKNPRSVGKASEQL (Peptide fragment of human Arginase 1) [Arg1-7, positions 61-80 of human Arginase 1]	–	Frequent immune responses were detected	–
HLSFDVDGL (Peptide fragment of human Arginase 1) [Arg6, positions 228-236 of human Arginase 1]	Strong responses	–	–
GDLPFADIPNDSPFQIVKNP (Peptide fragment of human Arginase 1) [Arg1-6, positions 51-70 of human Arginase 1]	–	Frequent immune responses were detected	–
AKDIVYIGLRDVDPGEHYIL (Peptide fragment of human Arginase 1) [Arg1-18, positions 171-190 of human Arginase 1]	–	Frequent immune responses were detected	spontaneous IFNγ ELISPOT responses against 20-mer library peptides [2]: highest and most abundant responses; percentage of IFNγ-producing cells compared to Arg(161-180) ([3]; CD4+ T cells in TILs, 5 h stimulation): higher; IFNγ or TNFα release from CD8+ T cells ([3]; TILs, 5 h peptide stimulation): No IFNγ or TNFα release was observed; IFNγ release from CD4+ T cells ([3]; one of the TIL cultures, 5 h peptide stimulation, FIG. 10A): IFNγ was released from CD4+ T cells
YLLGRKKRPI (Peptide fragment of human Arginase 1) [Arg14, positions 218-227 of human Arginase 1]	Strong responses	–	–
TPLTTTSGNLHGQPVSFLLK (Peptide fragment of human Arginase 1) [Arg1-14, positions 131-150 of human Arginase 1]	–	Frequent immune responses were detected	–
HGQPVSFLLKELKGKIPDVP (Peptide fragment of human Arginase 1) [Arg1-15, positions 141-160 of human Arginase 1]	–	Frequent immune responses were detected	–
GRKKRPIHLSFDVDGLDPSF (Peptide fragment of human Arginase 1) [Arg1-23, positions 221-240 of human Arginase 1]	–	Frequent immune responses were detected	spontaneous IFNγ ELISPOT responses against 20-mer library peptides [2]: highest and most abundant responses
SLGKTPEEVTRTVNTAVAIT (Peptide fragment of human Arginase 1) [Arg1-29, positions 281-300 of human Arginase 1]	–	Frequent immune responses were detected	–
VLGGDHSLAI (Peptide fragment of human Arginase 1) [Arg15, positions 96-105 of human Arginase 1]	Strong responses	–	–
GLLSGLDIM (Peptide fragment of human Arginase 1) [Arg9, positions 268-276 of human Arginase 1]	Strong responses	–	–
SLGKTPEEV (Peptide fragment of human Arginase 1) [Arg7, positions 281-289 of human Arginase 1]	Strong responses	–	–
LLSGLDIMEV (Peptide fragment of human Arginase 1) [Arg11, positions 269-278 of human Arginase 1]	Strong responses	–	–
TEEIYKTGLLSGLDIMEVNP (Peptide fragment of human Arginase 1) [Arg1-27, positions 261-280 of human Arginase 1]	–	Frequent immune responses were detected	spontaneous IFNγ ELISPOT responses against 20-mer library peptides [2]: highest and most abundant responses
MSAKSRTIGIIGAPFSKGQP (Peptide fragment of human Arginase 1) [Arg1-1, positions 1-20 of human Arginase 1]	–	Frequent immune responses were detected	–
DIMEVNPSL (Peptide fragment of human Arginase 1) [Arg10, positions 274-282 of human Arginase 1]	Strong responses	–	–
ELKGKIPDVPGFSWVTPCIS (Peptide fragment of human Arginase 1) [Arg1-16, positions 151-170 of human Arginase 1]	–	Frequent immune responses were detected	–
DVDPGEHYILKTLGIKYFSMTEVDRLGIGK (Peptide fragment of human Arginase 1) [Arg(181-210), 30-mer, positions 181-210 of human Arginase 1]	–	–	IFNγ ELISPOT responses against longer hot-spot peptides ([2]; selected PBMCs from cancer patients and healthy donors, one week stimulation with IL-2, FIG. 10B, 10C): lower than those against the overlapping 20-mer peptides
